Legend:
human CB1 receptor [1] = target: T1, human CB1 receptor (Homo sapiens, UniProt P21554); test: bioSensAll β-arrestin2 plasma membrane translocation (+GRK2) BRET biosensor assay in HEK293 cells transfected with hCB1; test compound added before EC75-80 of agonist CP55,940 (100 nM); type: cell-based; conditions: βArrestin2 (+GRK2) BRET biosensor, vs CP55,940 100 nM (EC75-80), read-out: CB1 wt βarr2 IC50
T1 construct: expressed in transfected cells; host or cells: HEK293
Description: (§1) Using polyethylenimine (PEI) transfection agent, HEK293 cells were transfected in suspension with the human CB1 receptor and one of the following bioSensAll® assays: GAPL-Gi2, or β-arrestin plasma membrane (PM) translocation biosensor (+GRK2). Cells were directly seeded in 96-well plates immediately following transfection.
(§2) Cells were incubated with coelenterazine (luciferase substrate) and different test compounds prior to the measurement of BRET signals.
(§3) Used in this project are i) Gα plasma membrane (GAPL) biosensors and the ii) β-arrestin plasma membrane translocation biosensor.
ii) The multimolecular β-arrestin membrane recruitment biosensors allow for real-time spatio-temporal monitoring of β-arrestin 1 and β-arrestin 2 following GPCR activation. Specifically, these β-arrestin sensors were designed to detect the recruitment of proteins to the plasma membrane (β-arrestin PM) with localization to compartment resulting in an increased BRET signal.
(§4) HEK293 cells were maintained in Dulbecco's Modified Eagle Medium (DMEM) (Wisent; cat #319-030-CL: without sodium pyruvate, with 4.5 g/L glucose, without L-glutamine) supplemented with 1% penicillin-streptomycin (Wisent; cat #450-201-EL) and 2 or 10% fetal bovine serum (Wisent cat #090150).
(§5) HEK293 cells were co-transfected with hCB1 and one of the above-listed bioSensAll® assays. For each transfection condition: • the total amount of transfected DNA was kept constant at 1 μg per mL of cell culture to be transfected; whenever necessary, salmon sperm DNA (Invitrogen, cat #15632011) was used as ‘carrier’ DNA to supplement plasmid DNA (i.e., biosensor and receptor); • the PEI (polyethylenimine 25 kDa linear, PolyScience, cat #23966) to DNA ratio (ug:ug) was fixed at 3:1.
(§6) Transfections were carried out as follows: • DNA and PEI were first diluted separately in 150 mM NaCl. The volume of the diluent in each tube corresponds to 5% of the cell culture volume to be transfected. • Once DNA and PEI were diluted, the PEI-containing solution was added to the DNA solution and the DNA/PEI mixture immediately vortexed for 5 seconds. • The DNA/PEI mixture was incubated for at least 20 minutes at room temperature to allow for the formation of DNA/PEI complexes. • During the incubation, HEK293 cells were detached, counted and re-suspended in culture medium (composition specified above). • At the end of the incubation period, the DNA/PEI mixture was added to the cells. • Cells were finally distributed in 96-well plates (White Opaque 96-well/Microplates, Greiner, cat #655083 or CulturPlate-96, White Opaque 96-well Microplate, PerkinElmer, cat #6005688) at a density of 30,000 cells per well.
(§7) At 48 hours post-transfection: • Using 450-Select TS Biotek plate washer, culture medium was aspirated and replaced with 100 μL of Hank's Balanced Salt Solution buffer (HBSS) (Wisent, cat #319-067CL: without red phenol; with sodium bicarbonate, with calcium and magnesium, with HEPES) per well. • Plates were then incubated (equilibrated) at 37° C., 5% CO2 for 60 minutes. • Increasing doses of test compounds were then added to each well using the HP D300e digital dispenser (Tecan). All compounds were assayed at the following 12 concentrations (in nM) with each biosensor: 0.000, 0.013, 0.040, 0.120, 0.320, 0.960, 2.80, 8.00, 24.0, 70.0, 205 and 600. • Three to 5 minutes later, an assay-specific effective concentration (EC)75-80 of agonist CP55,940 (i.e., 0.1 nM and 100 nM for G[…]i2-GAPL or […]Arrestin2 (+GRK2) assay, respectively) was added to wells previously injected with test compound (i.e., previous step 3). […]

human CB1 receptor [2] = target: T1, human CB1 receptor; test: bioSensAll GAPL-Gi2 BRET biosensor assay in HEK293 cells transfected with hCB1; test compound added before EC75-80 of agonist CP55,940 (0.1 nM); type: cell-based; conditions: vs CP55,940 0.1 nM (EC75-80), read-out: CB1 wt Gi2 IC50
Description: as §1, §2, §3
i) GAPL sensors are used to monitor the activation of heterotrimeric G proteins at the plasma membrane upon receptor stimulation. Specifically, these multimolecular BRET sensors detect the plasma membrane recruitment of proteins that interact with active Gα subunits in a G protein family-selective manner. G protein activation following receptor stimulation generally leads to an increase in the BRET signal.
as §4, §5, §6, §7

T1 sequence (P21554 whole entry): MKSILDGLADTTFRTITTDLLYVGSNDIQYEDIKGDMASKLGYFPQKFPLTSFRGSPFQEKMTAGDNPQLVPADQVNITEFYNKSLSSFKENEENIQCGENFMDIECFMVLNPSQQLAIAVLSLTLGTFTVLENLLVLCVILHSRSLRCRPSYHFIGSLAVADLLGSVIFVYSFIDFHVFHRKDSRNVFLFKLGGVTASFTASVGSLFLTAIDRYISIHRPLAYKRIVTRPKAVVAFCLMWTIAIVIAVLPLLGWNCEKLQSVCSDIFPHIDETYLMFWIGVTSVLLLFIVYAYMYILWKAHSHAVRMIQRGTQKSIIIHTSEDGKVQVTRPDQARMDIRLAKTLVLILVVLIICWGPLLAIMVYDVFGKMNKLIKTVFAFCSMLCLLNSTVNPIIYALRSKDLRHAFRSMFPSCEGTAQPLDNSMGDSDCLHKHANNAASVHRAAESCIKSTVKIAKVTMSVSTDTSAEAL

| Compound | IC50 (human CB1 receptor [1]) [nM] | IC50 (human CB1 receptor [2]) [nM] |
| --- | --- | --- |
| CC(CO)Oc1nc(N2CCC(C)(C(N)=O)CC2)c2nc(-c3ccccc3Cl)n(-c3ccc(Cl)cc3)c2n1 (single isomer, unassigned) [Compound 7, 1-[8-(2-chlorophenyl)-9-(4-chlorophenyl)-2-(2-hydroxy-1-methyl-ethoxy)purin-6-yl]-4-methyl-piperidine-4-carboxamide] | 3.45 | 0.417 |
| CC(O)COc1nc(N2CCC(C)(C(N)=O)CC2)c2nc(-c3ccccc3Cl)n(-c3ccc(Cl)cc3)c2n1 (single isomer, unassigned) [Compound 8, 1-[8-(2-chlorophenyl)-9-(4-chlorophenyl)-2-(2-hydroxypropoxy)purin-6-yl]-4-methyl-piperidine-4-carboxamide] | 2.74 | 0.922 |
| CC(CO)Oc1nc(N2CCC(C(F)(F)F)CC2)c2nc(-c3ccccc3Cl)n(-c3ccc(Cl)cc3)c2n1 (single isomer, unassigned) [Compound 24, 2-[8-(2-chlorophenyl)-9-(4-chlorophenyl)-6-[4-(trifluoromethyl)-1-piperidyl]purin-2-yl]oxypropan-1-01] | 1.91 | 0.707 |
| CC(O)COc1nc(N2CCC(C(F)(F)F)CC2)c2nc(-c3ccccc3Cl)n(-c3ccc(Cl)cc3)c2n1 (single isomer, unassigned) [Compound 25, 1-[8-(2-chlorophenyl)-9-(4-chlorophenyl)-6-[4-(trifluoromethyl)-1-piperidyl]purin-2-yl]oxypropan-2-ol] | 2.06 | 0.706 |
| CCOC1(C(N)=O)CCCN(c2nc(OCC(C)(C)O)nc3c2nc(-c2ccccc2Cl)n3-c2ccc(Cl)cc2)C1 (single isomer, unassigned) [Compound 216] | 8.61 | 1.77 |
| CCOC1(C(N)=O)CCCN(c2nc(OCC(C)(C)O)nc3c2nc(-c2ccccc2Cl)n3-c2ccc(Cl)cc2)C1 (single isomer, unassigned) [Compound 217] | 73.7 | 27 |
| CC(C)C(=O)Nc1nc(N2CCC(C)(C(N)=O)CC2)c2nc(-c3ccccc3Cl)n(-c3ccc(Cl)cc3)c2n1 [Compound 1, 1-[8-(2-chlorophenyl)-9-(4-chlorophenyl)-2-(2-methylpropanoylamino)purin-6-yl]-4-methyl-piperidine-4-carboxamide] | 15.2 | 4.3 |
| CN(C)C(=O)c1nc(N2CCC(C)(C(N)=O)CC2)c2nc(-c3ccccc3Cl)n(-c3ccc(Cl)cc3)c2n1 [Compound 2, 6-(4-carbamoyl-4-methyl-1-piperidyl)-8-(2-chlorophenyl)-9-(4-chlorophenyl)-N,N-dimethyl-purine-2-carboxamide] | 63.5 | 10.5 |
| Cc1cnn(-c2nc(N3CCC(C)(C(N)=O)CC3)c3nc(-c4ccccc4Cl)n(-c4ccc(Cl)cc4)c3n2)c1 [Compound 3, 1-[8-(2-chlorophenyl)-9-(4-chlorophenyl)-2-(4-methylpyrazol-1-yl)purin-6-yl]-4-methyl-piperidine-4-carboxamide] | 12.2 | 1.38 |
| Cc1ccn(-c2nc(N3CCC(C)(C(N)=O)CC3)c3nc(-c4ccccc4Cl)n(-c4ccc(Cl)cc4)c3n2)n1 [Compound 4, 1-[8-(2-chlorophenyl)-9-(4-chlorophenyl)-2-(3-methylpyrazol-1-yl)purin-6-yl]-4-methyl-piperidine-4-carboxamide] | 10.4 | 2.03 |
| CC1(C(N)=O)CCN(c2nc(N3CCNC[C@H]3CO)nc3c2nc(-c2ccccc2Cl)n3-c2ccc(Cl)cc2)CC1 [Compound 5, 1-[8-(2-chlorophenyl)-9-(4-chlorophenyl)-2-[(2S)-2-(hydroxymethyl)piperazin-1-yl]purin-6-yl]-4-methyl-piperidine-4-carboxamide] | 16 | 0.961 |
| CC1(C(N)=O)CCN(c2nc(OCCCO)nc3c2nc(-c2ccccc2Cl)n3-c2ccc(Cl)cc2)CC1 [Compound 6, 1-[8-(2-chlorophenyl)-9-(4-chlorophenyl)-2-(3-hydroxypropoxy)purin-6-yl]-4-methyl-piperidine-4-carboxamide] | 4.78 | 0.861 |
| CC(C)(O)COc1nc(N2CCC(C)(C(N)=O)CC2)c2nc(-c3ccccc3Cl)n(-c3ccc(Cl)cc3)c2n1 [Compound 9, 1-[8-(2-chlorophenyl)-9-(4-chlorophenyl)-2-(2-hydroxy-2-methyl-propoxy)purin-6-yl]-4-methyl-piperidine-4-carboxamide] | 2.92 | 0.398 |
| CN(CP(C)(C)=O)c1nc(N2CCC(C)(C(N)=O)CC2)c2nc(-c3ccccc3Cl)n(-c3ccc(Cl)cc3)c2n1 [Compound 71, 1-[8-(2-chlorophenyl)-9-(4-chlorophenyl)-2-[dimethylphosphorylmethyl(methyl)amino]purin-6-yl]-4-methyl-piperidine-4-carboxamide] | – | 9.05 |
| CC(C)(O)COc1nc(NCCO)c2nc(-c3ccccc3Cl)n(-c3ccc(Cl)cc3)c2n1 [Compound 98] | > 5000 | – |
| Cc1nc(C#N)ccc1-c1nc2c(N3CCC(C)(C(N)=O)CC3)nc(OCC(C)(C)O)nc2n1-c1ccc(Cl)cc1 [Compound 107, 1-[9-(4-chlorophenyl)-8-(6-cyano-2-methyl-3-pyridyl)-2-(2-hydroxy-2-methyl-propoxy)purin-6-yl]-4-methyl-piperidine-4-carboxamide] | – | 27.7 |
| CC(C)(O)COc1nc(N2CCC(C)(C(=O)O)CC2)c2nc(-c3ccc(C#N)nc3)n(-c3ccc(Cl)cc3)c2n1 [Compound 118, 1-[9-(4-chlorophenyl)-8-(6-cyano-3-pyridyl)-2-(2-hydroxy-2-methyl-propoxy)purin-6-yl]-4-methyl-piperidine-4-carboxylic acid] | > 5000 | – |
| Cc1cnccc1-c1nc2c(N3CCC(C)(C(N)=O)CC3)nc(OCC(C)(C)O)nc2n1-c1ccc(Cl)cc1 [Compound 122, 1-[9-(4-chlorophenyl)-2-(2-hydroxy-2-methyl-propoxy)-8-(3-methyl-4-pyridyl)purin-6-yl]-4-methyl-piperidine-4-carboxamide] | – | 14.6 |
| CN(CC(C)(C)O)c1nc(N2CC(C(N)=O)C2)c2nc(-c3ccc(C#N)nc3)n(-c3ccc(Cl)cc3)c2n1 [Compound 129] | – | 438 |
| NC(=O)N1CC(Nc2nc(N3CCC[C@H]3CO)nc3c2nc(-c2ccccc2Cl)n3-c2ccc(Cl)cc2)C1 [Compound 175] | – | 5.3 |
| CCOC1(C(=O)O)CCN(c2nc(OCC(C)(C)O)nc3c2nc(-c2ccccc2Cl)n3-c2ccc(Cl)cc2)CC1 [Compound 218] | – | 7.82 |
| CC(C)(O)COc1nc(N2CCNCC2)c2nc(-c3ccccc3Cl)n(-c3ccc(Cl)cc3)c2n1 [Compound 219] | – | 59.7 |
| CC(C)(O)COc1nc(N2CC(C(N)=O)C2)c2nc(-c3ccccc3Cl)n(-c3ccc(Cl)cc3)c2n1 [Compound 238] | – | 13.8 |
| CC(=O)NC1(C)CN(c2nc(OCC(C)(C)OP(=O)(O)O)nc3c2nc(-c2ccccc2Cl)n3-c2ccc(Cl)cc2)C1 [Compound 239, 1-((6-(3-acetamido-3-methylazetidin-1-yl)-8-(2-chlorophenyl)-9-(4-chlorophenyl)-9H-purin-2-yl)oxy)-2-methylpropan-2-yl dihydrogen phosphate] | – | 27.4 |
